Holding throughout (type): cell-based
The target in assay [1] is T1, human TRPC5 (Homo sapiens, UniProt Q9UL62).
T1 construct: expressed in transfected cells
T1 sequence (Q9UL62 1-973): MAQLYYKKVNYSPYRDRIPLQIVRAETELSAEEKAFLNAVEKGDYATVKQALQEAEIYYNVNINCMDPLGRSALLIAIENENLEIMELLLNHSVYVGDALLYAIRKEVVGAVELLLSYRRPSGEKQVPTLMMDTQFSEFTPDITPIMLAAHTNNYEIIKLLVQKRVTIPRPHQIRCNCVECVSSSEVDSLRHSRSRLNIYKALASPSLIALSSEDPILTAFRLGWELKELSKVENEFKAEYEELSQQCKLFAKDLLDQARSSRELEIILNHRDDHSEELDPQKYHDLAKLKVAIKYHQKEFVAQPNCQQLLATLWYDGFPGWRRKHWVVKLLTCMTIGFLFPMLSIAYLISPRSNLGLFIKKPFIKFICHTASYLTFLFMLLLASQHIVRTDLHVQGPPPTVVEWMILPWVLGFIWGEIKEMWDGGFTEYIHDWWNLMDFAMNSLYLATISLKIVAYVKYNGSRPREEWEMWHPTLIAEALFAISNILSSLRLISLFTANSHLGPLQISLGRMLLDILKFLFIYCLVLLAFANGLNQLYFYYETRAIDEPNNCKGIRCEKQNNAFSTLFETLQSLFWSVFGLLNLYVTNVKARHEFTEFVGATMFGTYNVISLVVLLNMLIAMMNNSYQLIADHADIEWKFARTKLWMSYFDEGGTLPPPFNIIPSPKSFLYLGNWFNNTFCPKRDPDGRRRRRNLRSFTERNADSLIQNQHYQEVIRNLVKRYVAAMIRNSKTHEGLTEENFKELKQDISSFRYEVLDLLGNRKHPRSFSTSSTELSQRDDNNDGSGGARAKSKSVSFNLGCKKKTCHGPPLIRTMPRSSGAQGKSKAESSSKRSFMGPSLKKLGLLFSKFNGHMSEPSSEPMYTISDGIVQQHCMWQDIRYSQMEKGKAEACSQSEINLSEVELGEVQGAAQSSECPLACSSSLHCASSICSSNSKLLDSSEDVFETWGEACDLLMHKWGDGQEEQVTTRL
The assay is described as follows: FLIPR calcium assay, inhibition of riluzole-activated TRPC5 calcium response. The following applies: ICLN-1633 cells; riluzole 30 μM stimulation; Fluo-4 calcium response; read-out: Inhibitor Potency Range (FLIPR). Here is the method: (§1) ICLN-1633 cells (HEK-TREx hTRPC5) expressing TRPC5 were generated as follows. Commercially available HekTrex-293 cells were seeded at 0.7×10^6 cells/well in a 1×6-well plate 24 hrs prior to transfection using 2 mL cell growth media containing no antibiotics (1× DMEM/high glucose (Hyclone #SH30022.02); 10% fetal bovine serum (Sigma) 2 mM sodium pyruvate, 10 mM HEPES). The human TRPC5 coding sequence (NM_012471 with a silent T478C mutation) was cloned into pcDNA5/TO (Invitrogen; Cat No. V103320) using hygromycin as the resistance gene and the plasmid (SEQ ID NO:1) propagated using T-Rex-293 cells (Invitrogen; Cat No. R71007) following manufacturer's directions. On day 2, 2 μg of plasmid DNA plus 6 μl of Xtreme-GENE HP reagent in Optimem (200 μl total volume) was prepared and incubated for 15 min at room temperature. This plasmid solution was then gently overlayed dropwise onto each well and the plate was gently swirled to mix complex with the media for approximately 30 seconds. Transfected cells were incubated at 37° C. in a 10% CO2 incubator for 24 hrs. The transfected cells were harvested and transferred into 2×150 mm dishes containing cell growth media with no antibiotics at 37° C.
(§2) Compounds were made up to, or supplied as a 10 mM stock solution generally using DMSO as the vehicle. 10-point dose response curves were generated using the Echo-550 acoustic dispenser. Compound source plates were made by serially diluting compound stocks to create 10 mM, 1 mM, and 0.1 mM solutions in DMSO into Echo certified LDV plates. The Echo then serially spotted 100% DMSO stock solutions into source dose response plates to generate a 4-fold dilution scheme. 100% DMSO was added to the spotted dose response plates to bring the final volume to 5 μl. 300 nl of the dose response stock plate was then spotted into pre-incubation and stimulation assay plates. 50 μl of pre-incubation buffer and 100 μl of stimulation buffer was then added to the plates resulting in a final assay test concentration range of 30 μM to 0.0001 μM with a final DMSO concentration of 0.3%.
(§3) Human ICLN-1633 cells expressing were plated onto 384 well, black poly-D-lysine-coated microplates and maintained in TRPC5 growth media the day prior to use for experiments. TRPC5 expression was induced by the application of 1 μg/mL tetracycline at the time of plating. Media was removed from the plates and 10 μl of 4 μM of Fluo-4 AM (mixed with equal volume of Pluronic F-127) in Earls's Balanced Salt Solution (EBSS) was added to the cells. Cells were incubated at room temperature, protected from light, for 60-90 minutes. After the incubation period, the dye was removed and replaced with 10 μl of EBSS. Cell, pre-incubation and stimulation plates were loaded onto the FLIPR-II and the assay was initiated. The FLIPR measured a 10 second baseline and then added 10 μl of 2× compounds (or controls). Changes in fluorescence were monitored for an additional 5 minutes. After the 5 minute pre-incubation, 20 μl of 2× riluzole (with 1× compound or controls) was added to the cell plate. The final riluzole stimulation concentration in the assay was 30 μM. After the riluzole addition, changes in fluorescence were monitored for an additional 5 minutes. Reduction in the riluzole-activated calcium response relative to control wells was reported as inhibition. A compound-mediated increase in the riluzole response relative to control riluzole response (no test agent present) with no enhancement of calcium entry during preincubation phase was reported as an agonist response.
Compound inhibition of TRPC5 calcium response was determined as follows. After the riluzole addition, fluorescence was monitored for a 5-minute period. For inhibition, the maximum relative fluorescence response (minus the control response of 1 μM of an internal control compound known to maximally block TRPC5 calcium response, the “REF INHIB” in the formula below) was captured and exported from the FLIPR. […]

In assay [2] the target is T1, human TRPC5. The experiment in a line: FLIPR calcium assay, compound activation (agonism) of TRPC5 calcium response. Also noted: key to Agonist Potency Range (FLIPR): A=0.001-1 μM; B=1-10 μM; C=>1 μM; D=tested with a positive result for agonism, but EC50 not calculated. As to conditions: ICLN-1633 cells, Fluo-4 calcium response; for EC50: read-out: Agonist Potency Range (FLIPR). On the procedure:
as §1, §2, §3
Compound activation (agonism) of TRPC5 calcium response was determined as follows. After the initial compound addition, fluorescence was monitored for 5 minutes. The maximum relative fluorescence response (minus the control response of EBSS buffer alone) is captured and exported from the FLIPR. Compound activation is calculated using the following formula: […]

The target of assay [3] is T1, human TRPC5. The experiment in a line: Automated patch clamp assay (QPatch), antagonist mode. As to conditions: HEK-TREx hTRPC5 cells; channel activated with Rosiglitazone 30 μM; normalised to ML-204 block; read-out: Qpatch Potency Range. Here is the method: as §1
The next day selection was initiated to generate a stable pool by adding cell growth media containing 150 μg/mL Hygromycin and 5 μg/mL Blasticidin and cells were allowed to grow. Media with the selection agent was changed every 1-2 days as needed to remove dead cells. After 7 days, the hygromycin concentration was reduced to 75 μg/mL and cells growth was allowed to continue.
Single clones were selected as follows. The stable pool was diluted to 10 cells/mL and seeded (100 μl/well) into 24×96 well plates (˜1 cell/well) and allowed to grow for 7 days in cell growth media. Fresh media (100 μl) was added and the cells allowed to grow for another 1-2 weeks and then stored frozen or used immediately.
The automated electrophysiological assay was carried out at room temperature. On the day of the experiment, TRPC5 cells were cultured according to our Standard Operating Procedure. Briefly, cells were harvested using TrypLE™ Express, re-suspended in serum free medium, added to the automated platform and used within 0.5-3 hours. Internal and external physiological solutions were freshly prepared prior to the assay. The external solution contained: 145 mM NaCl, 4 mM KCl, 2 mM CaCl2, 1 mM MgCl2, 10 mM HEPES, 10 mM glucose, pH 7.4 with NaOH and 310 mOsm/L. The internal solution contained 120 mM L-aspartic acid, 120 mM CsOH·H2O, 20 mM CsCl, 2 mM MgCl2, 8.8 mM CaCl2, 10 mM EGTA, 10 mM HEPES and 2 mM Na2ATP; pH 7.2 with CsOH and 330 mOsm/L. The free internal Ca^2+ concentration was buffered to 1 μM, according to the WCabuf software. The automated electrophysiological platform QPatch 16 from Sophion (Denmark) was used to carry out the compounds profiling. The series resistance and quality of seals were continuously monitored during the experiments. Data were analyzed using Sophion QPatch assay software 5.6 (Odense). Data were normalized using the maximum activation obtained during the pre-compound agonist application as the top value (1.0) and maximum inhibition induced by ML-204 as the bottom value (0.0). IC50 values were calculated using a least squares regression algorithm (Hill equation).
To monitor the ion currents, a voltage ramp from −100 mV to +100 mV, over 300 ms, was applied every 10 seconds, from a holding potential of −60 mV. Antagonist-mode: After recording for a minimum of 60 seconds control period, the EC60 concentration of the TRPC5 agonist, Rosiglitazone (30 μM), was applied to activate the channel. After reaching steady-state, co-application of increasing concentrations of test compound were applied followed by two applications of Rosiglitazone EC60 and a saturating concentration of the specific blocker ML-204 (100 μM).
(The patch-clamp technique gives a direct electrical read-out from membranes.)

The values below come from US12466834B2, “Imidazodiazepinediones and methods of use thereof” (GFB (ABC), LLC, priority 2018, dated 2025).

Bounds are passed on as bounds.

As for `CCCCn1c(Oc2cccc(F)c2)nc2c1C(=O)N(CCCO)C(=O)[C@H]1CCCN21` (single isomer, unassigned) [Compound 25], the IC50 in assay [1] is more than 10 µM. The “Agonist Potency Range (FLIPR)” value in assay [2] is “D”.

For `CCCOc1nc2c(n1Cc1ccc(Cl)cc1)C(=O)N(CCCO)C(=O)[C@@H]1CCCN21` [Compound 31], the IC50 in assay [1] was more than 10 µM. In addition, the EC50 in assay [2] is 0.001 to 1 µM.

Regarding `CC(C)Oc1nc2c(n1Cc1ccc(Cl)cc1)C(=O)N(CCCO)C(=O)[C@H]1CCCN21` [Compound 29], the IC50 in assay [1] was more than 10 µM. Further, the EC50 in assay [2] was 1 to 10 µM.

For the molecule `CCCOc1nc2c(n1Cc1ccc(Cl)cc1)C(=O)N(CCCO)C(=O)[C@H]1CCCN21` [Compound 30], in assay [1], the IC50 is more than 10 µM. Besides, the EC50 in assay [2] was 1 to 10 µM.

Take `O=C1c2c(nc(Oc3cccc(F)c3)n2Cc2ccc(Cl)cc2)N2CCC[C@@H]2C(=O)N1CCCO` [Compound 27]: the IC50 in assay [1] is more than 10 µM. Further, the EC50 in assay [2] was 0.001 to 1 µM.

As for `CC(C)Oc1nc2c(n1Cc1ccc(Cl)cc1)C(=O)N(CCCO)C(=O)[C@@H]1CCCN21` [Compound 28], in assay [1], the IC50 was more than 10 µM. The EC50 in assay [2] was 0.001 to 1 µM.

On to `C[C@H](c1ccc(Cl)cc1)n1c(Oc2cccc(F)c2)nc2c1C(=O)N(CCCO)CC(=O)N2C` (single isomer, unassigned) [Compound 6], for which the IC50 in assay [3] is more than 30 µM; in assay [1] it was more than 10 µM.

For the molecule `C[C@H]1C(=O)N(C)c2nc(Oc3cccc(F)c3)n(Cc3ccc(Cl)cc3)c2C(=O)N1CCCO` (single isomer, unassigned) [Compound 20], the IC50 in assay [3] is 1 to 30 µM; in assay [1], 0.001 to 1 µM.

`CN1C(=O)CN(CC(F)(F)CO)C(=O)c2c1nc(Oc1cccc(OC(F)(F)F)c1)n2Cc1ccc(Cl)cc1` [Compound 11]: the IC50 in assay [3] was more than 30 µM; in assay [1] it was 1 to 10 µM.

Take `CN1C(=O)CN(CCCO)C(=O)c2c1nc(Oc1cccc(OC(F)(F)F)c1)n2Cc1ccc(Cl)cc1` [Compound 2, 1-[(4-chlorophenyl)methyl]-7-(3-hydroxypropyl)-4-methyl-2-[3-(trifluoromethoxy)phenoxy]-1H,4H,5H,6H,7H,8H-imidazo[4,5-e][1,4]diazepine-5,8-dione]: the figures for the IC50 in assay [3] and in assay [1] were 1 to 30 µM and 1 to 10 µM, respectively.
